Earlier results on 1 compound are cited in patent US20210000792A1, “METHODS FOR REDUCING OR PREVENTING CARDIOVASCULAR EVENTS IN PATIENTS WITH TYPE II DIABETES MELLITUS” (Janssen Pharmaceutica NV, priority 2017, published 2021).

This data set concerns diabetic patients. The settings on record: metformin on its own; cited from earlier work.

Regarding `CN(C)C(=N)N=C(N)N` [metformin], the “Average improvement in the HbA1c value” is reported as 1.0-1.5%.
